From paper PMC10374108, “Structural and biochemical characterization of the key components of an auxin degradation operon from the rhizosphere bacterium Variovorax” (PLOS Biology, 2023)
“And” between values parts separate entries of the source, which are not always exact repeats. Identical values can stand only once. Like-named read-outs stand apart in the source and are kept apart here.

How the values were obtained:
IadK2 = IadK2 (Variovorax paradoxus, UniProt T1X8R6); assay: ITC, auxins binding to IadK2
Sequence of IadK2 (T1X8R6 entry or part of it): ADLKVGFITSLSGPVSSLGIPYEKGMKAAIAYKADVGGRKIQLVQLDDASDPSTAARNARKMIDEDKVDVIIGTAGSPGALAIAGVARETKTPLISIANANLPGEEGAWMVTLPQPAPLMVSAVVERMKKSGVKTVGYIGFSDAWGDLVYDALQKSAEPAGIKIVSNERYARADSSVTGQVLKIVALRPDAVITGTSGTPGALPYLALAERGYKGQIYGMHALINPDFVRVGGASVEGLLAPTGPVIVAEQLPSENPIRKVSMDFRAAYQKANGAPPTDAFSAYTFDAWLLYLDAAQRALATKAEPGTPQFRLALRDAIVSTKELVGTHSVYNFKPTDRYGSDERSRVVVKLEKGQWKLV
Description: (§1) ITC experiments were performed using a MicroCal PEAQ-ITC system (Malvern). All the experiments were performed at […] in a buffer containing 25 mM Tris-HCl (pH 7.5) and 150 mM NaCl (unless otherwise stated). […] Data was analyzed using the MicroCal PEAQ-ITC analysis software. All the measurements were repeated at least 2 times.

[1] = test system: IadD/E-IadC dioxygenase system; assay: In vitro IAA and analogs transformation assay, IadC + IadD/E; type: biochemical, Variovorax paradoxus CL14; conditions: normalised, replicates
Description: The reaction mixture was composed of 100 mM Tris-HCl (pH7.5), 250 μM reduced NADH, 10 μM ammonium iron (II) sulfate, and 3 μM of each enzyme component. […] The mixture was vortexed periodically to introduce oxygen for the reaction and was boiled to stop the reaction. After pelleting the precipitants, the supernatant was collected and mixed with 2 volumes of Salkowski reagent made of 0.5 M ferric chloride and 35% perchloric acid for the quantification of residual substrate by measuring the adsorption at 530 nm.

IadK3 = IadK3 (Variovorax paradoxus, UniProt A0A0H2LZ84); assay: ITC, auxins binding to IadK3; design: species or system Variovorax paradoxus CL14
Sequence of IadK3 (A0A0H2LZ84 entry or part of it): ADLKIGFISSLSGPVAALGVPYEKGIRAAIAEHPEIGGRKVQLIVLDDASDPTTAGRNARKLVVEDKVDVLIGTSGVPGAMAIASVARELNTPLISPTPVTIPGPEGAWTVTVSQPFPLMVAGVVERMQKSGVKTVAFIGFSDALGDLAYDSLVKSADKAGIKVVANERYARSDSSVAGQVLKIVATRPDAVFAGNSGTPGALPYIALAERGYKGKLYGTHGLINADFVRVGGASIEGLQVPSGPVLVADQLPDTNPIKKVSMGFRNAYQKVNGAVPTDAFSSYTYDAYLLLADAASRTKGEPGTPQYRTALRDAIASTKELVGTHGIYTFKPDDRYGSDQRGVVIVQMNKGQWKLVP
Description: as §1

[2] = target: IadD (Variovorax paradoxus CL14); assay: cryo-EM structure; purified IadD/E complex with 20-fold molar excess of IAA, 2.6 Å (2.59 Å), C3 symmetry
[3] = target: IadE (Variovorax paradoxus CL14); assay: SEC; co-expressed IadD/E complex purified by cation exchange, 20 mg/ml, HiLoad 200 column, 25 mM Tris-HCl pH 7.5, 150 mM NaCl, 2 mM DTT; peak fractions on SDS-PAGE
[4] = target: IadE (Variovorax paradoxus CL14); assay: cryo-EM structure; purified IadD/E complex with 20-fold molar excess of IAA, 2.6 Å (2.59 Å), C3 symmetry
[5] = ITC, single-phase isotherm, auxin analogs to IadK2, mean ± SEM, read-out: KD
[6] = IadK2, ITC, replicates, read-out: Kd

Molecule	Kd (IadK2; [5]) [µM]	Kd (IadK2; [6])	relative substrate level after reaction [1]	relative substrate level before reaction [1]	further results
O=C(O)COc1ccc(Cl)cc1Cl [2,4-D, 2,4-dichlorophenoxyacetic acid]					Kd (IadK2; ITC, single-phase isotherm, auxin analogs to IadK2, mean ± SEM): > 100 µM; Kd (IadK2; IadK2, ITC, replicates): > 100 µM
O=C(O)Cc1c[nH]c2cccc(Cl)c12 [4-Cl-IAA, 4-chloroindole-3-acetic acid]	15.2 ± 6.8	7 µM and 23.8 µM and 15 µM	0.2122 and 0.2346 and 0.1886	1 and 0.9732 and 0.9831	
O=C(O)Cc1c[nH]c2ccc(O)cc12 [5-HIAA, 5-hydroxy indole-3-acetic acid]			0.2661 and 0.2238 and 0.1936	1 and 1.014 and 0.9931	
O=C(O)CCCc1c[nH]c2ccccc12 [IBA, indole-3-butyric acid]	18 ± 7	28 µM and 11 µM and 16 µM	1.033 and 0.9962 and 0.976	1 and 1.003 and 0.9923	
O=C(O)CCc1c[nH]c2ccccc12 [IPA, indole-3-propionic acid]	1.4 ± 0.2	1.6 µM and 1.2 µM and 1.5 µM	0.9755 and 1.034 and 0.9864	1 and 1.004 and 1.006	
O=C(O)Cc1cccc2ccccc12 [NAA, 1-naphthylacetic acid]	17 ± 2.2	15 µM and 16 µM and 20 µM			
O=C(O)Cc1ccccc1 [PAA, phenylacetic acid]					binding to IadK2 (ITC) (IadK2; result in words): no binding; Kd (IadK3): > 100 µM; Kd (IadK3; read-out: ITC binding, IadK3, ITC, replicates): > 100 µM; binding to IadK3 (ITC) (IadK3; result in words): no binding detected
O=C(O)CC1C(=O)Nc2ccccc21 (centres unmarked) [oxIAA, 2-oxindole-3-acetic acid]					association with IadK3 (IadK3; result in words, method not stated): weakly associate
IadD (enzyme)					stoichiometry N [2]: 3; stoichiometry N (IadD:IadE molar ratio) [3]: 1
IadE (enzyme)					stoichiometry N [4]: 3
